Data on 13 molecules can be found in patent US12421229B2, “Hydropyrido[1,2-α]pyrazine compounds for the treatment of autoimmune disease” (Hoffmann-La Roche Inc., priority 2019, dated 2025).

This assay deals with T1, human TLR9 (Homo sapiens, UniProt Q9NR96).
T1 construct: host or cells: HEK293 (HEK-Blue hTLR9)
T1 sequence (Q9NR96 26-1032): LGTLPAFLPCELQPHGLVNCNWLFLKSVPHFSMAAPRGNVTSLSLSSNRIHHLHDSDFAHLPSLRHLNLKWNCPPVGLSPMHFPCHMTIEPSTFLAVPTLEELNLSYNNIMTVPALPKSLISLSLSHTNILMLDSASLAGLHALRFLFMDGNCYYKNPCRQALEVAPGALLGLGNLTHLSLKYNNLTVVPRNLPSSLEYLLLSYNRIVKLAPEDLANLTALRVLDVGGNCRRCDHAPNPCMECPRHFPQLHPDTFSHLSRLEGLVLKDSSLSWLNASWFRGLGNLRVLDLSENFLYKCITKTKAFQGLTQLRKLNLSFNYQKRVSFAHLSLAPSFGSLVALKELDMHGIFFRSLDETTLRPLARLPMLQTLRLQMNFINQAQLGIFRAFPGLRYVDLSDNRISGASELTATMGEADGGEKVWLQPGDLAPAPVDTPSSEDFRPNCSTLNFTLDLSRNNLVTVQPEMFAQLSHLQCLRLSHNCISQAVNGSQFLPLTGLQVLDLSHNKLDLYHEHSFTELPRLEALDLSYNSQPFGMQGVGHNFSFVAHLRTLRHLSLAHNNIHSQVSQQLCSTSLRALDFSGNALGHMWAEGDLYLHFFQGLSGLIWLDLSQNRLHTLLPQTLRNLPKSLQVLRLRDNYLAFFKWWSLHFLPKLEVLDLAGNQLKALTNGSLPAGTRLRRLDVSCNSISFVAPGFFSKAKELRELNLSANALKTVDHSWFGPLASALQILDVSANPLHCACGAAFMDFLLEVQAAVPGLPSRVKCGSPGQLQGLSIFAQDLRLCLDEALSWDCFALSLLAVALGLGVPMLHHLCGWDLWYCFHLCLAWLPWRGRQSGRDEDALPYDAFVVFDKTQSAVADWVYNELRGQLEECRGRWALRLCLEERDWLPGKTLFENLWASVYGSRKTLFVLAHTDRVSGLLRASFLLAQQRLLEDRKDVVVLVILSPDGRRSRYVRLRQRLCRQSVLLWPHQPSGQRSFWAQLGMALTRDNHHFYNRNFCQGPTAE
The assay is described as follows: HEK293-Blue-hTLR-9 cells assay. The note with it: HEK293-Blue-hTLR9 cells, ODN2006 stimulation, 20 hrs, SEAP reporter; read-out: HEK/hTLR9 IC50. Format: cell-based. From the text:
A stable HEK293-Blue-hTLR-9 cell line was purchased from InvivoGen (Cat. #: hkb-htlr9, San Diego, California, USA). These cells were originally designed for studying the stimulation of human TLR9 by monitoring the activation of NF-κB. A SEAP (secreted embryonic alkaline phosphatase) reporter gene was placed under the control of the IFN-β minimal promoter fused to five NF-κB and AP-1-binding sites. The SEAP was induced by activating NF-κB and AP-1 via stimulating HEK-Blue hTLR9 cells with TLR9 ligands. Therefore the reporter expression was declined by TLR9 antagonist under the stimulation of a ligand, such as ODN2006 (Cat. #: tlrl-2006-1, Invivogen, San Diego, California, USA), for incubation of 20 hrs. The cell culture supernatant SEAP reporter activity was determined using QUANTI-Blue™ kit (Cat. #: rep-qb1, Invivogen, San Diego, California, USA) at a wavelength of 640 nm, a detection medium that turns purple or blue in the presence of alkaline phosphatase.
HEK293-Blue-hTLR9 cells were incubated at a density of 250,000˜450,000 cells/mL in a volume of 170 μL in a 96-well plate in Dulbecco's Modified Eagle's medium (DMEM) containing 4.5 g/L glucose, 50 U/mL penicillin, […], 2 mM L-glutamine, 10% (v/v) heat-inactivated fetal bovine serum with addition of 20 μL test compound in a serial dilution in the presence of final DMSO at 1% and 10 μL of 20 uM ODN2006 in above DMEM, perform incubation under 37° C. in a CO2 incubator for 20 hrs. Then 20 μL of the supernatant from each well was incubated with 180 μL Quanti-blue substrate solution at 37° C. for 2 h and the absorbance was read at 620˜655 nm using a spectrophotometer. The signaling pathway that TLR9 activation leads to downstream NF-κB activation has been widely accepted, and therefore similar reporter assay was modified for evaluating TLR9 antagonist.
For the molecule `C[C@@H]1CN(c2ccc(C#N)c3ncccc23)C[C@@H]2C[C@@H](NCc3ccc(N4CCNCC4)cc3)CCN21` [Example 17, 5-[(4R,8S,9aS)-4-methyl-8-[(4-piperazin-1-ylphenyl)methylamino]-1,3,4,6,7,8,9,9a-octahydropyrido[1,2-a]pyrazin-2-yl]quinoline-8-carbonitrile], the IC50 is less than 32 nM.
To `[2H]c1ccc2c(N3C[C@@H]4C[C@H](Nc5ccc(C[C@H]6CNCCO6)cc5)CCN4[C@H](C)C3)ccc(C#N)c2n1` [Example 34, 5-[(4R,8R,9aS)-4-methyl-8-[4-[[(2S)-morpholin-2-yl]methyl]anilino]-1,3,4,6,7,8,9,9a-octahydropyrido[1,2-a]pyrazin-2-yl]-2-deuterio-quinoline-8-carbonitrile] belongs 57 nM; to `CO[C@H]1CN(c2ccc(O[C@H]3CCN4[C@@H](C3)CN(c3ccc(C#N)c5ncccc35)C[C@H]4C)cn2)C[C@H]1N` [Example 28, 5-[(4R,8S,9aS)-8-[[6-[(3R,4S)-3-amino-4-methoxy-pyrrolidin-1-yl]-3-pyridyl]oxy]-4-methyl-1,3,4,6,7,8,9,9a-octahydropyrido[1,2-a]pyrazin-2-yl]quinoline-8-carbonitrile], 44 nM; to `C[C@@H]1CN(c2ccc(C#N)c3ncccc23)C[C@@H]2C[C@@H](Oc3ccc(N4CCNCC4)nc3)CCN21` [Example 16, 5-[(4R,8S,9aS)-4-methyl-8-[(6-piperazin-1-yl-3-pyridyl)oxy]-1,3,4,6,7,8,9,9a-octahydropyrido[1,2-a]pyrazin-2-yl]quinoline-8-carbonitrile], 37 nM.
In the case of `CO[C@H]1CN(c2ccc(C3CN([C@@H]4CCN5[C@@H](C4)CN(c4ccc(C#N)c6ncccc46)C[C@H]5C)C3)cc2)C[C@H]1N` [Example 32, 5-[(4R,8R,9aS)-8-[3-[4-[(3R,4S)-3-amino-4-methoxy-pyrrolidin-1-yl]phenyl]azetidin-1-yl]-4-methyl-1,3,4,6,7,8,9,9a-octahydropyrido[1,2-a]pyrazin-2-yl]quinoline-8-carbonitrile], the IC50 worked out at 33 nM.
Then `C[C@@H]1CN(c2ccc(C#N)c3ncccc23)C[C@@H]2C[C@H](N3CC(c4ccc(N5CCNCC5)cc4)C3)CCN21` [Example 9, 5-[(4R,8R,9aS)-4-methyl-8-[3-(4-piperazin-1-ylphenyl)azetidin-1-yl]-1,3,4,6,7,8,9,9a-octahydropyrido[1,2-a]pyrazin-2-yl]quinoline-8-carbonitrile], with less than 32 nM; and `C[C@@H]1CN(c2ccc(C#N)c3ncccc23)C[C@@H]2C[C@@H](c3ccc(CC4CNCCO4)cc3)CCN21` (stereo partly drawn) [Example 26, 5-[(4R,8S,9aS)-4-methyl-8-[4-(morpholin-2-ylmethyl)phenyl]-1,3,4,6,7,8,9,9a-octahydropyrido[1,2-a]pyrazin-2-yl]quinoline-8-carbonitrile], with 95 nM; and `C[C@@H]1CN(c2ccc(C#N)c3ncccc23)C[C@H]2C[C@H](c3ccc(N4CCNCC4)nc3)CCN21` [Example 15, 5-[(4R,8R,9aR)-4-methyl-8-(6-piperazin-1-yl-3-pyridyl)-1,3,4,6,7,8,9,9a-octahydropyrido[1,2-a]pyrazin-2-yl]quinoline-8-carbonitrile], with 84 nM.
To `C[C@@H]1CN(c2ccc(C#N)c3ncccc23)C[C@@H]2C[C@H](Nc3ccc([C@H]4CNCCO4)cc3)CCN21` [Example 20, 5-[(4R,8R,9aS)-4-methyl-8-[4-[(2S)-morpholin-2-yl]anilino]-1,3,4,6,7,8,9,9a-octahydropyrido[1,2-a]pyrazin-2-yl]quinoline-8-carbonitrile] belongs 50 nM.
Then `C[C@@H]1CN(c2ccc(C#N)c3ncccc23)C[C@@H]2C[C@H](NCc3ccc(N4CCNCC4)cc3)CCN21` [Example 1, 5-[(4R,8R,9aS)-4-methyl-8-[(4-piperazin-1-ylphenyl)methylamino]-1,3,4,6,7,8,9,9a-octahydropyrido[1,2-a]pyrazin-2-yl]quinoline-8-carbonitrile], with less than 32 nM; and `C[C@@H]1CN(c2ccc(C#N)c3ncccc23)C[C@@H]2C[C@@H](Oc3ccc(N4CCNCC4)cn3)CCN21` [Example 11, 5-[(4R,8S,9aS)-4-methyl-8-[(5-piperazin-1-yl-2-pyridyl)oxy]-1,3,4,6,7,8,9,9a-octahydropyrido[1,2-a]pyrazin-2-yl]quinoline-8-carbonitrile], with 90 nM; and `C[C@@H]1CN(c2ccc(C#N)c3ncccc23)C[C@@H]2C[C@H](c3ccc(N4C[C@@H](N)[C@@H](F)C4)nc3)CCN21` [Example 19, 5-[(4R,8R,9aS)-8-[6-[(3R,4S)-3-amino-4-fluoro-pyrrolidin-1-yl]-3-pyridyl]-4-methyl-1,3,4,6,7,8,9,9a-octahydropyrido[1,2-a]pyrazin-2-yl]quinoline-8-carbonitrile], with 82 nM.
Consider `C[C@@H]1CN(c2ccc(C#N)c3ncccc23)C[C@@H]2C[C@H](Nc3ccc(C[C@@H]4CNCCO4)cc3)CCN21` [Example 21, 5-[(4R,8R,9aS)-4-methyl-8-[4-[[(2R)-morpholin-2-yl]methyl]anilino]-1,3,4,6,7,8,9,9a-octahydropyrido[1,2-a]pyrazin-2-yl]quinoline-8-carbonitrile], for which the IC50 is 86 nM.
